Assay results published in PubChem BioAssay (NCI).
“And” between values parts separate entries of the source, which are not always exact repeats. Equal values may be shown once.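 Cultured in 96-well plates, cells were exposed to test compound for 48 hours across five concentrations. At the GI50, growth is halved. TGI: total growth inhibition.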 Where a SMILES comes first, the peptide text is derived from it. [ ]: non-standard residue; d: D form. The star is where a group is joined. ξ: configuration not given here. ξD = NC(CC(=O)O)C(=O)O; Ac3c = NC1(C(=O)O)CC1; Boc = CC(C)(C)OC(=O)*; OBn = c1ccc(CO*)cc1

Legend:
Assay in all cases: NCI anticancer screen, dose series, 48 h
CAKI-1 renal = system: CAKI-1 renal
HL-60(TB) leukemia = system: HL-60(TB) leukemia
MDA-MB-231 breast = system: MDA-MB-231 breast
MDA-MB-435 = system: MDA-MB-435
SF-539 CNS = system: SF-539 CNS
SNB-19 CNS = system: SNB-19 CNS
SW-620 colon = system: SW-620 colon
U251 CNS = system: U251 CNS
UO-31 renal = system: UO-31 renal
T-47D breast = system: T-47D breast

| SMILES | TGI (CAKI-1 renal) | TGI (HL-60(TB) leukemia) | TGI (MDA-MB-231 breast) | TGI (MDA-MB-435) | TGI (SF-539 CNS) | TGI (SNB-19 CNS) | TGI (SW-620 colon) | TGI (U251 CNS) | TGI (UO-31 renal) | TGI (T-47D breast) | GI50 (CAKI-1 renal) | GI50 (HL-60(TB) leukemia) | GI50 (SNB-19 CNS) | GI50 (UO-31 renal) |
| --- | --- | --- | --- | --- | --- | --- | --- | --- | --- | --- | --- | --- | --- | --- |
| COc1ccccc1NC(=S)N/N=C(/C)c1ccccn1 | > 100 µM | 2.08 µM | 7.46 µM | > 100 µM | 14.9 µM | > 100 µM | > 100 µM | > 100 µM | > 83.4 µM |  |  |  |  |  |
| CSc1nc(NC2OCC(O)C(O)C2O)c(N)c(=O)n1C (configuration not stated) |  | > 100 µM |  |  | > 100 µM | > 100 µM | > 100 µM | > 100 µM | > 100 µM |  |  |  |  |  |
| CCOC(=O)c1c2c(n(-c3ccc(OC)cc3)c1C)C(=O)C(=O)c1ccccc1-2 | 2.82 µM |  | 4.37 µM | 0.351 µM | 1.76 µM | 19 µM | 8.09 µM | 2.63 µM |  | 4.44 µM |  |  |  |  |
| CC(=Nc1c2ccccc2nc2ccccc12)N(C)C | > 100 µM | 24 µM | 30.4 µM | > 100 µM |  | > 100 µM |  | 72 µM | 54.6 µM | 54.5 µM |  |  |  |  |
| CCOC(=O)C(NC(=O)CC(C)C)(Nc1ccc(C(F)(F)F)cc1)C(F)(F)F (configuration not stated) |  | 59.9 µM |  | > 100 µM | > 100 µM | > 100 µM | > 100 µM | > 100 µM | > 100 µM | 81.8 µM |  |  |  |  |
| Cc1ccc(NC(=S)Nc2c(C)n(C)n(-c3ccccc3)c2=O)cc1 | > 100 µM | > 100 µM | > 100 µM | > 100 µM | > 100 µM | > 100 µM | > 100 µM | > 100 µM | > 100 µM |  |  |  |  |  |
| O=c1[nH]c(=O)n(COCc2ccccc2)c2ccc(Br)cc12 | > 100 µM | > 100 µM | > 100 µM | > 100 µM | > 100 µM | > 100 µM | > 100 µM | > 100 µM | > 100 µM |  |  |  |  |  |
| C[C@H](CC[C@@H](O)C(C)(C)O)[C@H]1CC[C@@]2(C)[C@@H]3CC=C4[C@@H](CC[C@H](O)C4(C)C)[C@]3(C)C(=O)C[C@]12C |  | > 50 µM | > 50 µM | > 50 µM | > 50 µM | > 50 µM | > 50 µM | > 50 µM | > 50 µM |  |  |  |  |  |
| CN(C)CCCNc1c2ccccc2nc2cccc([N+](=O)[O-])c12 |  | 0.0721 µM | 0.00712 µM | 0.00242 µM | 0.00757 µM and 0.0252 µM | 0.0171 µM and 0.142 µM |  | 0.0143 µM | 0.0107 µM and 0.0363 µM |  | < 0.001 µM | 0.0175 µM | 0.0303 µM | < 0.001 µM |
| COC(=O)C1(NC(=O)C(CC(=O)OCc2ccccc2)NC(=O)OC(C)(C)C)CC1 (configuration not stated) (Boc-[ξD](OBn)-[Ac3c]-OMe) | > 100 µM |  | > 100 µM | > 100 µM | > 100 µM | > 100 µM | > 100 µM | > 100 µM | > 100 µM | > 100 µM |  |  |  |  |
| N=S(=O)(c1ccccc1)c1ccccc1[N+](=O)[O-] (configuration not stated) | > 100 µM | > 100 µM |  |  | > 100 µM | > 100 µM | > 100 µM | > 100 µM | > 100 µM |  |  |  |  |  |
| CC1CCc2c(sc3ncnc(N/N=C/c4ccc(Cl)c(Cl)c4)c23)C1 (configuration not stated) | 56.6 µM | > 100 µM |  |  | 60.6 µM | 74.3 µM | > 100 µM | 20 µM | 43.8 µM |  |  |  |  |  |
| Cn1c(-c2ccc[se]2)ccc1-c1ccc(CO)[se]1 | < 0.0332 µM | > 100 µM | > 88.2 µM | > 67.7 µM | > 100 µM | > 100 µM | > 100 µM | 15.8 µM | > 100 µM |  |  |  |  |  |
| O=C(NCCCCNCCCNC(=O)c1ccccc1)c1ccccc1 |  | > 100 µM | > 100 µM | > 100 µM | > 100 µM | > 100 µM | > 100 µM | > 100 µM | > 100 µM | > 100 µM |  |  |  |  |
| Cc1ccc(S(=O)(=O)NC(=O)NCCC(=O)O)cc1 |  | > 100 µM | > 100 µM |  | > 100 µM | > 100 µM | > 100 µM | > 100 µM | > 100 µM | > 100 µM |  |  |  |  |
| O=C(c1ccccc1)c1c(C(F)(F)F)n([O-])c2cc(Cl)c(Cl)cc2[n+]1=O | 2.93 µM | 2.06 µM |  | 3.08 µM | 3.88 µM | 3 µM | 6.72 µM | 2.71 µM | 4.21 µM | 3.03 µM |  |  |  |  |
| O=C(NNc1cn[nH]c(=O)c1Cl)/C(=C/c1ccc2c(c1)OCO2)NC(=O)c1ccccc1 | 56.2 µM |  | > 100 µM | > 100 µM | > 100 µM | > 100 µM | > 100 µM | > 100 µM | > 100 µM | > 100 µM |  |  |  |  |
| O=C(/C=C/c1ccc(-c2ccccc2)cc1)NCc1ccc(C(=O)NCCc2c[nH]c3ccccc23)cc1 | 40.7 µM |  | 42.1 µM | > 100 µM | > 100 µM | 53.6 µM | > 100 µM | > 100 µM | > 100 µM | > 100 µM |  |  |  |  |
